The nature of data set [1]: Permeability of the compound at pH 7.4 by PAMPA. The class given is physicochemical. The following applies: read-out: permeability. In general terms: The PAMPA barrier holds no transporters, so it reflects passive diffusion.
Data set [2] addresses T1, Nuclear factor erythroid 2-related factor 2 (Homo sapiens) (UniProt Q16236).
T1 sequence (whole entry): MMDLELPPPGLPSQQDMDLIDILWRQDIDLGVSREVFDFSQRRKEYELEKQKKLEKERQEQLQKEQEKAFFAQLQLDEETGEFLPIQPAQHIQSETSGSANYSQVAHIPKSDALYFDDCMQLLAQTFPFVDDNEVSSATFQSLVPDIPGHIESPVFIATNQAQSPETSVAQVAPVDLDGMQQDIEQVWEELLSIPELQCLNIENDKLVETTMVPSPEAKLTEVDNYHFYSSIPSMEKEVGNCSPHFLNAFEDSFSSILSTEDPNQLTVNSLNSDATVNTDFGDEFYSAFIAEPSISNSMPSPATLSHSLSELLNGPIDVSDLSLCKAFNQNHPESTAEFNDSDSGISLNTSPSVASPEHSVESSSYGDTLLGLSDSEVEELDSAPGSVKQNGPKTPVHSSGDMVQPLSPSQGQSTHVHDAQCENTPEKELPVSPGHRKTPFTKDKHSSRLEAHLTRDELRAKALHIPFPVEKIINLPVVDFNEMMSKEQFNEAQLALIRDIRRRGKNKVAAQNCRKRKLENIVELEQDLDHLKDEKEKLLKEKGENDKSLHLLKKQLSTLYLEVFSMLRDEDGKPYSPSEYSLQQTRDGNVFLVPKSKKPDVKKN
The data set is described as follows: Activation of Nrf2 in human HepG2-ARE-C8 cells assessed as upregulation of ARE level at 160 uM after 12 hrs by luciferase reporter gene assay relative to control. The class given is cell-based. On the technique in general: In a reporter assay the amount or activity of a reporter protein is the signal.

A short description of data set [3]: Intrinsic aqueous solubility of the compound by potentiometric titration method. The class given is physicochemical. The settings on record: read-out: Intrinsic_solubility.
Data set [4] addresses T1, Nuclear factor erythroid 2-related factor 2 (Homo sapiens). The data set can be described thus: Activation of Nrf2 in human HepG2-ARE-C8 cells assessed as upregulation of ARE level at 0.02 uM after 12 hrs by luciferase reporter gene assay relative to control. Type of data set: cell-based.
For data set [5] the target is unchanged. The data set can be described thus: Activation of Nrf2 in human HepG2-ARE-C8 cells assessed as upregulation of ARE level at 0.2 uM after 12 hrs by luciferase reporter gene assay relative to control. Type of data set: cell-based.
Data set [6] can be described thus: Dissociation constant, pKa of the compound by potentiometric titration method. The class given is physicochemical.
Data set [7] concerns HCT-116. The data set is described as follows: Cytotoxicity against human HCT116 cells assessed as reduction of cell proliferation at 80 uM after 24 hrs by MTT assay. The settings on record: hct-116, 24 h. The class given is cell-based. A general note: Formazan colour is commonly taken as a measure of viable cells.
In data set [8] the target is T1, Nuclear factor erythroid 2-related factor 2 (Homo sapiens). The data set is described as follows: Activation of Nrf2 in human HepG2-ARE-C8 cells assessed as upregulation of ARE level at 40 uM after 12 hrs by luciferase reporter gene assay relative to control. The class given is cell-based.
Data set [9] shares this target. The data set can be described thus: Activation of Nrf2 in human HepG2-ARE-C8 cells assessed as upregulation of ARE level at 20 uM after 12 hrs by luciferase reporter gene assay relative to control. The class given is cell-based.
For data set [10] the target is unchanged. The data set is described as follows: Activation of Nrf2 in human HepG2-ARE-C8 cells assessed as upregulation of ARE level at 80 uM after 12 hrs by luciferase reporter gene assay relative to control. The class given is cell-based.
The target is the same in data set [11]. The data set is described as follows: Activation of Nrf2 in human HepG2-ARE-C8 cells assessed as upregulation of ARE level at 2 uM after 12 hrs by luciferase reporter gene assay relative to control. The class given is cell-based.
The nature of data set [12]: Lipophilicity, log D of the compound at pH 7.4 by potentiometric titration method. Type of data set: physicochemical. The settings on record: buffer.
The subject of data set [13] is HCT-116. The data set is described as follows: Cytotoxicity against human HCT116 cells assessed as effect on cell proliferation at 5 to 80 uM after 24 hrs by MTT assay. The following applies: hct-116, 24 h. The class given is cell-based.

In brackets after ≈: the same amount, converted by molar mass.

One may read the pKa as the pH at which an ionisable group is half protonated. Read a low pKa as a stronger acid or weaker base. For orientation: logD means the decadic logarithm of the distribution of all forms, ionised or not, between an organic phase and buffer at a given pH.

Consider `CC(C)NCC(O)COc1cccc2ccccc12` (configuration not stated) [PROPRANOLOL], for which the Papp in [1] was 117 ×10⁻⁶ cm/s.

As for `Brc1ccc(-c2nc(-c3ccc4nc[nH]c4c3)no2)cc1`, in data set [1], the Papp was found to be 11.2 ×10⁻⁶ cm/s. Also, the fold change (FC) in data set [2] is 2.49; in data set [4], 1.31; in data set [5] it was 2.36; in data set [8] it was 3.44; in data set [9], 13.4; in data set [10], 2.75. In addition, the fold change (FC) in data set [11] is 12.7. In addition, the solubility in data set [3] was determined as 35.4 µM (≈ 12.1 µg/mL). Also, the pKa in data set [6] is 3.25. Further, the Activity entry in [7] is “Non-toxic”. In addition, in [12], the logD was found to be 3.54.

As to `CC(C(=O)O)c1cccc(C(=O)c2ccccc2)c1` (configuration not stated) [KETOPROFEN], the Papp in data set [1] worked out at 1.93 ×10⁻⁶ cm/s.

As for `c1ccc(-c2nc(-c3ccc4nc[nH]c4c3)no2)cc1`, the Papp in [1] stood at 5.26 ×10⁻⁶ cm/s. Moreover, the fold change (FC) in [2] stood at 4.46; in data set [4], 1.49; in [5], 4.72; in data set [8] it was 23.7; in [9], 21.4; in [10], 3.19. Further, the fold change (FC) in data set [11] stood at 14.2. Also, the solubility in [3] was found to be 12.3 µM (≈ 3.23 µg/mL). This compound also had a pKa in [6] of 3.69. Further, in data set [7], the Activity result is “Non-toxic”. The same compound returned a logD in [12] of 3.66.

As to `Cn1nnc2cc(-c3noc(-c4ccccc4)n3)ccc21`, the fold change (FC) in [2] was determined as 11.7; in data set [4], 1.18; in [5], 1.12; in data set [8] it was 7.34; in data set [9] it was 5.65; in [10], 7.67. Also, the fold change (FC) in data set [11] is 4.48. Also, the Activity entry in [13] is reported as “Non-toxic”.

Regarding `c1cc2ccc(-c3nc(-c4ccc5nc[nH]c5c4)no3)cc2[nH]1`, the fold change (FC) in data set [2] came out at 8.88; in data set [4], 1.22; in [5], 1.5; in data set [8] it was 11; in data set [9], 10.2; in data set [10], 11.6. Moreover, in data set [11], the fold change (FC) came to 1.77. Besides, the Activity entry in data set [7] is listed as “Non-toxic”.

Turning to `N#Cc1ccccc1-c1nc(-c2ccc3nc[nH]c3c2)no1`, the fold change (FC) in data set [2] amounted to 2.09; in data set [4], 1.36; in [5] it was 1.48; in data set [8] it was 1.32; in data set [9], 1.33; in [10], 1.39. Also, in [11], the fold change (FC) was determined as 2.46. Besides, the Activity entry in [7] is reported as “Non-toxic”.

`CCc1ccc(-c2nc(-c3ccc4nc[nH]c4c3)no2)cc1`: the fold change (FC) in [2] amounted to 3.69; in [4] it was 1.37; in data set [5], 1.75; in data set [8] it was 5.88; in [9], 9.34; in data set [10], 4.82. Besides, the fold change (FC) in data set [11] was determined as 2.56. The Activity result in data set [7] is listed as “Non-toxic”.

As to `FC(F)(F)c1cccc(-c2nc(-c3ccc4nc[nH]c4c3)no2)c1`, the fold change (FC) in data set [2] came to 2.94; in data set [4] it was 2.56; in data set [5], 8.04; in data set [8], 5.65; in [9], 10.5; in [10], 3.45. The fold change (FC) in [11] was determined as 13.9. Moreover, the Activity result in data set [7] is reported as “Non-toxic”.

`Clc1ccc(-c2nc(-c3ccc4nc[nH]c4c3)no2)cc1`: the Papp in [1] turned out to be 10.3 ×10⁻⁶ cm/s. Also, the fold change (FC) was determined as 14.2 in [2]; 2.03 in [4]; 2.79 in data set [5]; 18.5 in data set [8]; 15.5 in data set [9]; 14.1 in [10]. In addition, the fold change (FC) in data set [11] amounted to 7.25. In addition, in data set [3], the solubility was found to be 49.5 µM (≈ 14.7 µg/mL). This compound returned a pKa in data set [6] of 3.77. Besides, the Activity result in data set [7] was “Non-toxic”. In addition, the logD in data set [12] stood at 3.71.

As to `COc1ccc(-c2nc(-c3ccc4nc[nH]c4c3)no2)c(OC)c1`, the fold change (FC) in data set [2] came out at 1.46; in data set [4], 1.25; in data set [5] it was 1.59; in data set [8], 11.6; in data set [9], 8.57; in data set [10], 4.35. Also, in [11], the fold change (FC) was 2.84. Also, the Activity result in data set [7] is recorded as “Non-toxic”.

Turning to `Cc1ccccc1-c1nc(-c2ccc3nc[nH]c3c2)no1`, the fold change (FC) in data set [2] was 7.85; in data set [4], 1.4; in data set [5], 1.59; in data set [8], 10.8; in [9], 10.9; in data set [10], 18.5. For the same compound, the fold change (FC) in data set [11] was determined as 3.52. In addition, in data set [7], the Activity result is “Non-toxic”.

For `FC(F)(F)c1ccccc1-c1nc(-c2ccc3nc[nH]c3c2)no1`, in data set [1], the Papp is 4.78 ×10⁻⁶ cm/s. Further, the fold change (FC) was 3.73 in [2]; 1.23 in data set [4]; 2.28 in [5]; 24.2 in [8]; 19.1 in data set [9]; 17.9 in data set [10]. In addition, the fold change (FC) in data set [11] turned out to be 9.01. Further, in [3], the solubility amounted to 14 µM (≈ 4.62 µg/mL). The compound also gave a pKa in [6] of 4. For the same compound, the Activity entry in data set [7] is on record as “Non-toxic”. This compound registered a logD in [12] of 4.01.

Turning to `Oc1ccc(-c2nc(-c3ccc4nc[nH]c4c3)no2)cc1`, the fold change (FC) in data set [2] came to 7.35; in [4], 1.56; in data set [5], 1.65; in data set [8] it was 8.67; in data set [9], 6.23; in data set [10], 8.81. For the same compound, in [11], the fold change (FC) turned out to be 2.19. Moreover, the Activity entry in data set [7] was “Non-toxic”.

As for `c1ccc2cc(-c3nc(-c4ccc5nc[nH]c5c4)no3)ccc2c1`, in [1], the Papp was 8.64 ×10⁻⁶ cm/s. Moreover, the fold change (FC) was 16.2 in data set [2]; 1.42 in data set [4]; 1.23 in data set [5]; 7.57 in data set [8]; 6.72 in [9]; 13.4 in data set [10]. Further, the fold change (FC) in data set [11] was 3.47. The solubility in data set [3] came out at 2.5 µM (≈ 0.781 µg/mL). The pKa in data set [6] turned out to be 4.22. Further, the Activity result in [7] is given as “Non-toxic”. The logD in data set [12] turned out to be 5.56.

On to `COc1ccccc1-c1nc(-c2ccc3nc[nH]c3c2)no1`, for which the fold change (FC) came to 5.85 in [2]; 1.24 in [4]; 1.39 in data set [5]; 10.7 in data set [8]; 5.96 in data set [9]; 8.46 in data set [10]. The fold change (FC) in data set [11] was found to be 1.62. Besides, in [7], the Activity result was “Non-toxic”.

For the compound `Oc1cccc(-c2nc(-c3ccc4nc[nH]c4c3)no2)c1`, the fold change (FC) came to 3.93 in data set [2]; 1.68 in [4]; 1.71 in [5]; 4.18 in data set [8]; 8.62 in data set [9]; 4.05 in data set [10]. The fold change (FC) in data set [11] was found to be 2.44. Further, the Activity entry in [7] was “Non-toxic”.

The values above are taken from ChEMBL document CHEMBL3585308, “Discovery and Modification of in Vivo Active Nrf2 Activators with 1,2,4-Oxadiazole Core: Hits Identification and Structure-Activity Relationship Study” (J Med Chem, 2015).
